Results: publication PMC5267425, “Identification of small molecule modulators of HIV-1 Tat and Rev protein accumulation” (Retrovirology, 2017)
Values joined by “and” are separate entries in the source; they are usually repeats but may differ in a detail not shown here. Equal entries are not always repeated.

System: cellular gene expression in HeLa rtTA HIV∆Mls cells

For `Cc1cc(NCc2cccnc2)n2ncc(-c3ccc(Cl)cc3)c2n1` [Compound 791, 3-(4-chlorophenyl)-5-methyl-N-(3-pyridinylmethyl)pyrazolo[1,5-a]pyrimidin-7-amine], the LYSMD1 expression level (gene LYSMD1, 9147791-treated cells, two replicates) was 6.83 and 7.15, the MAP3K12 expression level (gene MAP3K12, 9147791-treated cells, two replicates) was 10.58 and 11.11 and the MBD6 expression level (gene MBD6, 9147791-treated cells, two replicates) was 19.55 and 19.21. For the same molecule, the MBLAC2 expression level (gene MBLAC2, 9147791-treated cells, two replicates) was 3.53 and 3.60, the MED1 expression level (gene MED1, 9147791-treated cells, two replicates) was 16.72 and 17.76 and the MKKS expression level (gene MKKS, 9147791-treated cells, two replicates) was 33.76 and 31.64. For the same molecule, the MLKL expression level (gene MLKL, 9147791-treated cells, two replicates) was 8.65 and 8.80, the MORC2 expression level (gene MORC2, 9147791-treated cells, two replicates) was 14.30 and 13.93 and the MRPL1 expression level (gene MRPL1, 9147791-treated cells, two replicates) was 13.37 and 12.84. The MRPS16 expression level (gene MRPS16, 9147791-treated cells, two replicates) was 56.39 and 57.78, the MRPS18B expression level (gene MRPS18B, 9147791-treated cells, two replicates) was 84.33 and 82.56 and the MSL1 expression level (gene MSL1, 9147791-treated cells, two replicates) was 19.35 and 20.08. The MTIF2 expression level (gene MTIF2, 9147791-treated cells, two replicates) was 23.18 and 24.37, the MXI1 expression level (gene MXI1, 9147791-treated cells, two replicates) was 11.96 and 11.72 and the MYSM1 expression level (gene MYSM1, 9147791-treated cells, two replicates) was 6.50 and 6.96. The NADK expression level (gene NADK, 9147791-treated cells, two replicates) was 51.36 and 49.09, the NFX1 expression level (gene NFX1, 9147791-treated cells, two replicates) was 16.88 and 17.47 and the NHLRC2 expression level (gene NHLRC2, 9147791-treated cells, two replicates) was 5.90 and 6.13. The NR2C1 expression level (gene NR2C1, 9147791-treated cells, two replicates) was 12.80 and 13.28, the NSMAF expression level (gene NSMAF, 9147791-treated cells, two replicates) was 20.81 and 21.54 and the NT5DC3 expression level (gene NT5DC3, 9147791-treated cells, two replicates) was 2.73 and 2.69. For the same molecule, the NUFIP2 expression level (gene NUFIP2, 9147791-treated cells, two replicates) was 18.50 and 18.17, the OSMR expression level (gene OSMR, 9147791-treated cells, two replicates) was 33.63 and 36.47 and the OTUD6B expression level (gene OTUD6B, 9147791-treated cells, two replicates) was 9.61 and 9.84. The PATL1 expression level (gene PATL1, 9147791-treated cells, two replicates) was 30.78 and 31.35, the PEX19 expression level (gene PEX19, 9147791-treated cells, two replicates) was 25.90 and 26.36 and the PHF1 expression level (gene PHF1, 9147791-treated cells, two replicates) was 27.67 and 28.09. For the same molecule, the PIP4K2C expression level (gene PIP4K2C, 9147791-treated cells, two replicates) was 17.91 and 18.93, the PLD3 expression level (gene PLD3, 9147791-treated cells, two replicates) was 114.37 and 115.61 and the PLD6 expression level (gene PLD6, 9147791-treated cells, two replicates) was 4.96 and 5.07. For the same molecule, the PLEKHG4 expression level (gene PLEKHG4, 9147791-treated cells, two replicates) was 9.09 and 8.55, the PLRG1 expression level (gene PLRG1, 9147791-treated cells, two replicates) was 18.77 and 17.99 and the PNPO expression level (gene PNPO, 9147791-treated cells, two replicates) was 12.32 and 11.96. For the same molecule, the POLR1B expression level (gene POLR1B, 9147791-treated cells, two replicates) was 13.48 and 13.61, the PORCN expression level (gene PORCN, 9147791-treated cells, two replicates) was 8.43 and 8.53 and the PPIE expression level (gene PPIE, 9147791-treated cells, two replicates) was 36.69 and 37.52. For the same molecule, the PPPDE1 expression level (gene PPPDE1, 9147791-treated cells, two replicates) was 25.65 and 26.33, the PPPDE2 expression level (gene PPPDE2, 9147791-treated cells, two replicates) was 24.63 and 25.91 and the PRDX5 expression level (gene PRDX5, 9147791-treated cells, two replicates) was 527.71 and 539.87. The PRKAB1 expression level (gene PRKAB1, 9147791-treated cells, two replicates) was 9.24 and 9.53, the PRKAB2 expression level (gene PRKAB2, 9147791-treated cells, two replicates) was 9.63 and 9.56 and the PRKAG2 expression level (gene PRKAG2, 9147791-treated cells, two replicates) was 4.40 and 4.65. The PRPF38B expression level (gene PRPF38B, 9147791-treated cells, two replicates) was 24.17 and 23.91, the RAD23A expression level (gene RAD23A, 9147791-treated cells, two replicates) was 139.22 and 133.17 and the RAD51C expression level (gene RAD51C, 9147791-treated cells, two replicates) was 25.11 and 27.22. For the same molecule, the RBM18 expression level (gene RBM18, 9147791-treated cells, two replicates) was 22.42 and 23.14, the RDH14 expression level (gene RDH14, 9147791-treated cells, two replicates) was 13.62 and 14.25 and the REPS1 expression level (gene REPS1, 9147791-treated cells, two replicates) was 11.08 and 11.40. The RETSAT expression level (gene RETSAT, 9147791-treated cells, two replicates) was 39.84 and 41.20, the RFNG expression level (gene RFNG, 9147791-treated cells, two replicates) was 19.96 and 19.40 and the RILPL1 expression level (gene RILPL1, 9147791-treated cells, two replicates) was 8.85 and 9.19. The RIPK2 expression level (gene RIPK2, 9147791-treated cells, two replicates) was 9.51 and 9.78, the RNF135 expression level (gene RNF135, 9147791-treated cells, two replicates) was 6.73 and 6.55 and the RNF139 expression level (gene RNF139, 9147791-treated cells, two replicates) was 14.33 and 14.56. For the same molecule, the RNF146 expression level (gene RNF146, 9147791-treated cells, two replicates) was 8.67 and 9.36, the RNF212 expression level (gene RNF212, 9147791-treated cells, two replicates) was 23.40 and 24.53 and the RPRD1A expression level (gene RPRD1A, 9147791-treated cells, two replicates) was 17.67 and 18.23. The RPUSD3 expression level (gene RPUSD3, 9147791-treated cells, two replicates) was 51.54 and 51.13, the RTTN expression level (gene RTTN, 9147791-treated cells, two replicates) was 5.05 and 5.18 and the RUNDC1 expression level (gene RUNDC1, 9147791-treated cells, two replicates) was 7.46 and 7.03. The SDCCAG3 expression level (gene SDCCAG3, 9147791-treated cells, two replicates) was 69.16 and 66.70, the SENP1 expression level (gene SENP1, 9147791-treated cells, two replicates) was 10.13 and 10.39 and the SENP5 expression level (gene SENP5, 9147791-treated cells, two replicates) was 9.14 and 9.80. The SIKE1 expression level (gene SIKE1, 9147791-treated cells, two replicates) was 10.16 and 10.46, the SLC26A11 expression level (gene SLC26A11, 9147791-treated cells, two replicates) was 7.10 and 7.46 and the SLC35B3 expression level (gene SLC35B3, 9147791-treated cells, two replicates) was 9.59 and 9.09. For the same molecule, the SLC38A6 expression level (gene SLC38A6, 9147791-treated cells, two replicates) was 8.14 and 8.35, the SLC39A6 expression level (gene SLC39A6, 9147791-treated cells, two replicates) was 55.62 and 53.39 and the SMEK2 expression level (gene SMEK2, 9147791-treated cells, two replicates) was 22.28 and 23.17. The SQSTM1 expression level (gene SQSTM1, 9147791-treated cells, two replicates) was 402.87 and 398.40, the ST6GALNAC4 expression level (gene ST6GALNAC4, 9147791-treated cells, two replicates) was 39.60 and 40.55 and the ST7L expression level (gene ST7L, 9147791-treated cells, two replicates) was 3.77 and 3.85. For the same molecule, the STAMBP expression level (gene STAMBP, 9147791-treated cells, two replicates) was 26.17 and 25.95, the STK24 expression level (gene STK24, 9147791-treated cells, two replicates) was 98.53 and 99.63 and the STK36 expression level (gene STK36, 9147791-treated cells, two replicates) was 5.44 and 5.78. For the same molecule, the STK40 expression level (gene STK40, 9147791-treated cells, two replicates) was 6.18 and 6.16, the STX4 expression level (gene STX4, 9147791-treated cells, two replicates) was 45.64 and 43.00 and the TBCCD1 expression level (gene TBCCD1, 9147791-treated cells, two replicates) was 7.66 and 8.12. For the same molecule, the TGDS expression level (gene TGDS, 9147791-treated cells, two replicates) was 10.85 and 10.65, the TIGD2 expression level (gene TIGD2, 9147791-treated cells, two replicates) was 10.77 and 11.51 and the TMEM33 expression level (gene TMEM33, 9147791-treated cells, two replicates) was 13.53 and 12.82. The TMEM68 expression level (gene TMEM68, 9147791-treated cells, two replicates) was 5.74 and 5.79, the TMEM120B expression level (gene TMEM120B, 9147791-treated cells, two replicates) was 7.48 and 7.87 and the TMEM126B expression level (gene TMEM126B, 9147791-treated cells, two replicates) was 51.64 and 47.99. For the same molecule, the TMEM134 expression level (gene TMEM134, 9147791-treated cells, two replicates) was 16.44 and 17.07, the TMEM167B expression level (gene TMEM167B, 9147791-treated cells, two replicates) was 13.61 and 13.31 and the TRIM38 expression level (gene TRIM38, 9147791-treated cells, two replicates) was 6.07 and 6.47. The TRMT2A expression level (gene TRMT2A, 9147791-treated cells, two replicates) was 11.24 and 11.68, the TRNT1 expression level (gene TRNT1, 9147791-treated cells, two replicates) was 14.44 and 15.17 and the TTC9C expression level (gene TTC9C, 9147791-treated cells, two replicates) was 44.37 and 45.86. The USP3 expression level (gene USP3, 9147791-treated cells, two replicates) was 15.95 and 16.26, the USP45 expression level (gene USP45, 9147791-treated cells, two replicates) was 4.03 and 4.15 and the VHL expression level (gene VHL, 9147791-treated cells, two replicates) was 23.74 and 22.96. For the same molecule, the WDR73 expression level (gene WDR73, 9147791-treated cells, two replicates) was 10.95 and 11.17, the XPO5 expression level (gene XPO5, 9147791-treated cells, two replicates) was 32.34 and 33.37 and the ZBED5 expression level (gene ZBED5, 9147791-treated cells, two replicates) was 26.69 and 27.18. The ZBTB26 expression level (gene ZBTB26, 9147791-treated cells, two replicates) was 10.25 and 9.99, the ZBTB34 expression level (gene ZBTB34, 9147791-treated cells, two replicates) was 4.78 and 4.42 and the ZCCHC4 expression level (gene ZCCHC4, 9147791-treated cells, two replicates) was 6.80 and 6.69. For the same molecule, the ZCCHC8 expression level (gene ZCCHC8, 9147791-treated cells, two replicates) was 17.17 and 17.82, the ZCCHC9 expression level (gene ZCCHC9, 9147791-treated cells, two replicates) was 6.71 and 6.52 and the ZFP30 expression level (gene ZFP30, 9147791-treated cells, two replicates) was 3.88 and 3.75. For the same molecule, the ZFP36L2 expression level (gene ZFP36L2, 9147791-treated cells, two replicates) was 6.55 and 6.96, the ZFP64 expression level (gene ZFP64, 9147791-treated cells, two replicates) was 11.62 and 11.15 and the ZFYVE27 expression level (gene ZFYVE27, 9147791-treated cells, two replicates) was 15.03 and 14.85. For the same molecule, the ZNF12 expression level (gene ZNF12, 9147791-treated cells, two replicates) was 10.78 and 10.46, the ZNF91 expression level (gene ZNF91, 9147791-treated cells, two replicates) was 4.92 and 4.68 and the ZNF133 expression level (gene ZNF133, 9147791-treated cells, two replicates) was 7.16 and 7.05. For the same molecule, the ZNF184 expression level (gene ZNF184, 9147791-treated cells, two replicates) was 6.52 and 6.31, the ZNF193 expression level (gene ZNF193, 9147791-treated cells, two replicates) was 10.85 and the ZNF195 expression level (gene ZNF195, 9147791-treated cells, two replicates) was 11.04 and 10.45. The ZNF319 expression level (gene ZNF319, 9147791-treated cells, two replicates) was 3.69 and 3.71, the ZNF320 expression level (gene ZNF320, 9147791-treated cells, two replicates) was 11.36 and 12.30 and the ZNF354A expression level (gene ZNF354A, 9147791-treated cells, two replicates) was 9.92 and 9.13. For the same molecule, the ZNF445 expression level (gene ZNF445, 9147791-treated cells, two replicates) was 5.75 and 5.83, the ZNF566 expression level (gene ZNF566, 9147791-treated cells, two replicates) was 3.15 and 2.91 and the ZNF619 expression level (gene ZNF619, 9147791-treated cells, two replicates) was 2.16 and 1.99. For the same molecule, the ZNF664 expression level (gene ZNF664, 9147791-treated cells, two replicates) was 57.01 and 56.94, the ZNF700 expression level (gene ZNF700, 9147791-treated cells, two replicates) was 10.30 and 10.08 and the ZNF706 expression level (gene ZNF706, 9147791-treated cells, two replicates) was 34.34 and 36.65. For the same molecule, the ZNF764 expression level (gene ZNF764, 9147791-treated cells, two replicates) was 5.35 and 5.20, the ZNF780B expression level (gene ZNF780B, 9147791-treated cells, two replicates) was 4.74 and 4.46 and the ZNF800 expression level (gene ZNF800, 9147791-treated cells, two replicates) was 6.37 and 6.62. For the same molecule, the ZRSR2 expression level (gene ZRSR2, 9147791-treated cells, two replicates) was 34.69 and 32.80, the ZSWIM7 expression level (gene ZSWIM7, 9147791-treated cells, two replicates) was 4.48 and 4.71 and the “genes with changes of <fivefold in expression” value (of ~10,000 genes detected) was 85. For the same molecule, the “genes with changes of <tenfold in expression” value (of ~10,000 genes detected) was 4.
